Test results taken from PMC8192780 (2021).

Legend:
[1] = system: c7G15-modified Chili (R3 ligated to R2) (RNA, aptamer, 7-deazaguanine (c7G) at 15; 3'-phosphate on printed 3' fragment) GGCUAGCUGGAGGGGCGCCAGUUCGCUGGUGGUUGGGUGCGGUCGGCUAGCC; assay: absorbance and fluorescence; settings: K+ 125 mM, Mg2+ 5 mM; 40 mM HEPES pH 7.5; 10 µM RNA and ligand (absorbance)
[2] = system: c7G15 Chili with r4CI at 46 (R3 ligated to R5) (RNA, aptamer, 7-deazaguanine (c7G) at 15; 4-cyanoindole ribonucleoside (r4CI) replaces G46; 3'-phosphate on printed 3' fragment) GGCUAGCUGGAGGGGCGCCAGUUCGCUGGUGGUUGGGUGCGGUCGGCUAGCC; assay: FRET from r4CI to ligand; settings: K+ 125 mM, Mg2+ 5 mM; 40 mM HEPES pH 7.5
[3] = system: c7G15 Chili with r4CI at 34 (R3 ligated to R4) (RNA, aptamer, 7-deazaguanine (c7G) at 15; 4-cyanoindole ribonucleoside (r4CI) replaces U34; 3'-phosphate on printed 3' fragment) GGCUAGCUGGAGGGGCGCCAGUUCGCUGGUGGUUGGGUGCGGUCGGCUAGCC; assay: FRET from r4CI to ligand; settings: K+ 125 mM, Mg2+ 5 mM; 40 mM HEPES pH 7.5
[4] = system: Chili C40U (Tr13) (RNA, aptamer) GGCUAGCUGGAGGGGCGCCAGUUCGCUGGUGGUUGGGUGUGGUCGGCUAGCC; assay: absorbance and fluorescence; settings: K+ 125 mM, Mg2+ 5 mM; 40 mM HEPES pH 7.5; 5 µM RNA and ligand; 30% reduced fluorescence
[5] = system: Parent Chili (Tr1) (RNA, aptamer) GGCUAGCUGGAGGGGCGCCAGUUCGCUGGUGGUUGGGUGCGGUCGGCUAGCC; assay: fluorescence activation; settings: 40 mM HEPES pH 7.5
[6] = system: Parent Chili (Tr1) (RNA, aptamer) GGCUAGCUGGAGGGGCGCCAGUUCGCUGGUGGUUGGGUGCGGUCGGCUAGCC; assay: X-ray crystallography; settings: K+ 50 mM, Mg2+ 5 mM, 10 mM HEPES pH 8.0, then MES pH 5.4-5.8, spermine, PEG 400
[7] = system: Chili G15A (Tr12) (RNA, aptamer) GGCUAGCUGGAGGGACGCCAGUUCGCUGGUGGUUGGGUGCGGUCGGCUAGCC; assay: absorbance and fluorescence; settings: K+ 125 mM, Mg2+ 5 mM; 40 mM HEPES pH 7.5; 5 µM RNA and ligand
[8] = system: Chili G15A/C40U (Tr14) (RNA, aptamer) GGCUAGCUGGAGGGACGCCAGUUCGCUGGUGGUUGGGUGUGGUCGGCUAGCC; assay: absorbance and fluorescence; settings: K+ 125 mM, Mg2+ 5 mM; 40 mM HEPES pH 7.5; 5 µM RNA and ligand; binding site only partially restored
[9] = system: Chili P1C (Tr2) (RNA, aptamer) GGCUAGCCGGAGGGGCGCCAGUUCGCUGGUGGUUGGGUGCGGUCGGCUAGCC; assay: fluorescence activation; settings: K+ 125 mM, Mg2+ 5 mM; 40 mM HEPES pH 7.5; 1 µM RNA and ligand; slower maturation than parent
[10] = system: Chili P1A (Tr3) (RNA, aptamer) GGCUAGCUGGAGGGGCGCCAGUUCGCUGGUGGUUGGGUGCGGUCAGCUAGCC; assay: fluorescence activation; settings: K+ 125 mM, Mg2+ 5 mM; 40 mM HEPES pH 7.5; 1 µM RNA and ligand; slower maturation than parent
[11] = system: Chili P1-2 (Tr5) (RNA, aptamer) GGAGCUGGAGGGGCGCCAGUUCGCUGGUGGUUGGGUGCGGUCGGCUCC; assay: fluorescence activation; settings: K+ 125 mM, Mg2+ 5 mM; 40 mM HEPES pH 7.5; 1 µM RNA and ligand; >80% of parent
[12] = system: Chili P1-1 (Tr4) (RNA, aptamer) GGCAGCUGGAGGGGCGCCAGUUCGCUGGUGGUUGGGUGCGGUCGGCUGCC; assay: fluorescence activation; settings: K+ 125 mM, Mg2+ 5 mM; 40 mM HEPES pH 7.5; 1 µM RNA and ligand; >80% of parent
[13] = system: circularly permuted Chili aptamer (Tr10) (RNA, aptamer) GGGUGCGGUCAGUCCGGAAGGACUGGAGGGGCGCCAGUUCGCUGGUGGUU; assay: fluorescence activation; settings: K+ 125 mM, Mg2+ 5 mM; 40 mM HEPES pH 7.5; 75% of P1A fluorescence enhancement
[14] = system: Chili P1-3 (Tr6) (RNA, aptamer) GGACUGGAGGGGCGCCAGUUCGCUGGUGGUUGGGUGCGGUCGGUCC; assay: fluorescence activation; settings: K+ 125 mM, Mg2+ 5 mM; 40 mM HEPES pH 7.5; 1 µM RNA and ligand; >80% of parent

binding [1]	binding [2]	binding [3]	binding [4]	binding ([5]; Na+ (replaces K+, 125 mM), 25% residual intensity against K+)	binding ([5]; Tl+ (replaces K+, 125 mM), intensity preserved against K+)	binding ([6]; 2.25 Å)	binding [7]	binding [8]	binding [9]	binding [10]	binding [11]	binding [12]	binding [13]	binding [14]	binding ([6]; 2.95 Å)	Structure (SMILES)
no	no	no	yes	yes	yes	yes	no	yes	–	–	–	–	–	–	–	COc1cc(/C=C2N=C(/C=N/O)N(c3ccc([N+](C)(C)C)cc3)C\2=O)cc(OC)c1O
–	–	–	–	–	–	–	–	–	yes	yes	yes	yes	yes	yes	yes	COc1cc(/C=C2\N=C(C)N(c3ccc([N+](C)(C)C)cc3)C2=O)cc(OC)c1O
